Test results: US10064843B2, “Bis-amide derivative and use thereof” (University-Industry Cooperation Group of Kyung Hee …, priority 2013, dated 2018)
Like-named read-outs stand apart in the source and are kept apart here.

What was measured:
[1] = target: T1, CypA (Homo sapiens, UniProt P62937); assay: PPIase activity of CypA, coupled chymotrypsin analysis; format: biochemical
T1 construct: GST (N, cleaved yes); made in house; host or cells: E. coli (pGEX-KG)
Protocol: Example 5: Analysis of Peptidyl-Prolyl Cis-Trans Isomerase Activity
The PPIase activity of CypA was determined according to a known method using the coupled chymotrypsin analysis.
The cis-trans isomerization was measured by absorbance at 390 nm in a spectrophotometer. Additionally, the remaining percentage of enzyme activity was measured at different concentrations of the inhibitor to calculate the 50% inhibition concentration (IC50) to the PPIase activity. Data was optimized via graphs by exporting using Graph Pad Prism 5.

[2] = target: T1, CypA; assay: 2D 1H TOCSY NMR of the WJCPA-126 and CypA complex; format: binding; conditions: FIG. 4
Description: In the spin system of […],[…], and […] of CypA, the connectivity was shown in yellow-, green-, and red solid lines. […] From the above result, it was confirmed that the bis-amide compounds of the present invention can specifically bind to […],[…], and […] residues of CypA thereby inhibiting the PPIase activity of CypA.

[3] = system: HCV replicon cells; assay: Luciferase activity in HCV replicon cells; format: cell-based; conditions: Hepatitis C virus, 72 h, read-out: inhibition of luciferase activity of HCV
Protocol: Additionally, a series of compounds (WJCPA-1 to WJCPA-135) having the bis-amide structure as a parent structure in common, based on the inhibitory effect of WJCPA-126 against the PPIase activity, were synthesized and their activities were confirmed. Specifically, Huh7-rep cells were treated with each of the compounds at a concentration of 2 μM for 3 days, and the expression level of NS5A was confirmed by performing an immunoblot analysis according to a known method (FIG. 5). The 32 kinds of compounds confirmed to have excellent inhibitory effect especially against the NS5A expression from the immunoblot experiment were measured regarding their inhibitory effect against luciferase activity and the results are illustrated in FIG. 6. In the same manner as in western blot, the HCV replicon cells were treated with each of the compounds at a concentration of 2 μM and incubated for 72 hours, and the total cell lysate of the cultured cells were used for the analyses of western blot and the activity of luciferase.

[4] = system: murine splenocytes; assay: MTT cytotoxicity in murine splenocytes; format: cell-based, mouse; conditions: up to 10 μM; FIG. 8a
Protocol: Example 3: Isolation of Splenocytes from Mice and Cell Culture
Seven to eight week-old female Balb/c mice were purchased from Orient Bio, Inc. (Sungnam, Korea). Experimental animals were allowed to maintain at a non-pathogenic environment and adapted before the experiment. Experimental mice were sacrificed by dislocation of spine, and the spleens collected therefrom were removed into petri dishes filled with RPMI containing 10% FBS, 100 units/mL of penicillin, and 100 μg/mL of streptomycin. The spleens were dispersed through a nylon mesh to prepare a single cell suspension, and RBC was depleted by using RBC lysis buffer (Sigma, St. Louis, Mo.). Splenocytes were washed and cultured in RPMI complete medium.
Example 9: Analysis of Cytotoxicity
Cytotoxicity was analyzed in a 96-well plate using 5 mg/mL of MTT (3-(4,5-dimethylthiasol-2-yl)-2,5-diphenyltetrazolium bromide). The optical density of cells was measured at 550 nm using a microplate reader (Bio-Rad, Richmond, Calif., USA). Cell viability rate was expressed in percentage of the absorbance of treated cells relative to the absorbance of untreated cells.

[5] = system: calcineurin; assay: Calcineurin phosphorylase analysis in splenocytes; format: cell-based, mouse; conditions: FIG. 8b
Protocol: Example 6: Analysis of Calcineurin Phosphorylase
Dephosphorylation of RH phosphopeptide was measured using calcineurin cell activity assay kit (Enzo Life sciences, Plymouth Meeting, Pa., USA) to determine calcium-dependent activity of calcineurin. Splenocytes (2×10^6/well) were incubated along with or WJCPA-126 for 20 hours, and further untreated or stimulated with 1 μg/mL of ionomycin (Calibiochem, La Jolla, Calif., USA). Then, the cells were used for the measurement of calcineurin activity.

[6] = target: T2, CypA and NS5A or NS5B (Homo sapiens, UniProt P62937); assay: Co-immunoprecipitation and mammalian two-hybrid analysis of CypA with NS5A or NS5B; format: cell-based; conditions: FIG. 13a, 13b
T2 construct: 1 mg/mL of HCV Con1b replicon protein lysate; endogenous in cells; host or cells: Huh7 cells carrying the HCV Con1b subgenomic replicon
T2 sequence (P62937 whole entry): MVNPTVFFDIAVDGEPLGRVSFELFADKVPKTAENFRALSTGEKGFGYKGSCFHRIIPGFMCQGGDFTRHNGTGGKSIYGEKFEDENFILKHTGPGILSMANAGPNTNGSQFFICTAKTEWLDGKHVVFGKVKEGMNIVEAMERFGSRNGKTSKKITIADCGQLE
Protocol: Example 17: Co-Immunoprecipitation Assay
For co-immunoprecipitation, 4 μg of specific antibody and 1 mg/mL of HCV Con1b replicon protein lysate to a final volume of 500 μL were rotated at 4° C. for 4 hours. Then, 20 μL of the washed protein A/G PLUS agarose (Santa Cruz, Calif., USA) was added thereto and incubated at 4° C. overnight. Subsequently, the sample was washed 3 times with Triton-wash-buffer, resuspended, and denatured in 5×SDS-PAGE buffer at 95° C. for 5 minutes. The resultant was centrifuges at 19,000 g for 1 minute at 4° C. and subjected to western blot analysis.
Example 18: Mammalian Two-Hybrid System
The interaction between intracellular CypA-NS5A and CypA-NS5B was confirmed by the two-hybrid screening technology using CheckMate™ mammalian two-hybrid system (Promega, Madison, Wis., USA) according to the manufacturer's instructions. In brief, pACT- and pBIND-based plasmids were co-transfected (TurboFect, FermentasC) to Huh7 cells along with a pG5luc reporter construct, and incubated at 37° C. After 72 hours, the cell lysate was analyzed regarding the luciferase activity.

[7] = system: IL-8; assay: IL-8 mRNA and IL-8 ELISA in HCV replicon cell; format: cell-based, human; conditions: 2 μM
Protocol: Example 11: Determination of IL-8 and INF-α Concentrations in Cell Culture Media by ELISA
Upon incubation, the cell culture media were collected and the IL-8 and IFN-α concentrations were analyzed according to the protocol of eBioscience (San Diego, Calif., USA) by ELISA.
(§1) Example 19: Real-Time Quantitative Reverse Transcriptase PCR Analysis
(§2) Real-time quantitative reverse transcriptase PCR (qRT-PCR) was performed using SYBR Green PCR Master Mix (Invitrogen/Applied Biosystem, Carlsbad, Calif., USA) and ABI Prism 7300 Real-time PCR System (Applied Biosystems, Carlsbad, Calif., USA) according to the manufacturer's instructions. Calculations were performed based on […] method using the following equation: R (ratio)=2-[ΔCT (sample)-ΔCT (control group)]. The data were expressed as fold change of the treated group relative to the control group and standardized relative to the glyceraldehyde 3-phosphate dehydrogenase (GAPDH) level.

[8] = system: HCV replicon cell; assay: Combined treatment: HCV replicon RNA level by qRT-PCR, synergy analysis; format: cell-based, hepatitis C virus; conditions: in combination with telaprevir, IFN-α, or ribavirin vs. each alone; FIG. 16
Protocol: as §1, §2
Example 20: Synergy Analysis
In order to confirm whether the combination between NIM811 and IFN-α, ribavirin, or telaprevir is synergistic, additive, or antagonistic, the combination index (CI) was calculated using the CalcuSyn Software (Biosoft). In fact, the combination is additive when CI=1.0, synergistic when CI<1.0, and antagonistic when CI>1.0.

T1 sequence (P62937 whole entry): as above

COc1cc(C(C(=O)NC2CCCCC2)N(C(=O)Cc2c[nH]c3ccccc23)c2ccc(C(C)C)cc2)cc(OC)c1OC (centres unmarked) [WJCPA-126, N-cyclohexyl-2-[(2-1H-indol-3-yl-acetyl)-(4-isopropyl-phenyl)-amino]-2-(3,4,5-trimethoxy-phenyl)-acetamide]
inhibitory effect against the PPIase activity of CypA ([1]; 1 μM, 20 nM CypA, FIG. 3a): strong inhibitory effect
IC50 ([1]; FIG. 3b, read-out: IC50 PPIase activity): 3.5 nM
IC50 ([1]; FIG. 7a, read-out: IC50 PPIase activity of CypA): 3.6 nM
binding residues of CypA by NMR [2]: binds to Arg 55, Trp 121, and Phe 113 residues of CypA
inhibition at 2 µM [3]: ≤ 80%
cytotoxicity in mouse splenocytes [4]: no cytotoxicity
effect on ionomycin-stimulated calcineurin phosphorylase activity [5]: no inhibitory effect
interactions between CypA and NS5A or NS5B [6]: destroys the interactions between CypA and NS5A or NS5B
mRNA level of IL-8 ([7]; FIG. 15b): significant reduction of mRNA level of IL-8 in a time-dependent manner
IL-8 production (ELISA) ([7]; FIG. 15c): significantly reduces the expression of IL-8 production
levels of HCV-specific RNA and IL-8 in combined treatment [8]: synergistic decrease
